ChEMBL document CHEMBL1201862, “PubChem BioAssay data set” (2004)
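Test compounds were applied to cells in 96-well plates for 48 hours at 5 doses. Abbreviation: GI50, concentration required for 50% inhibition of growth.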 Active and inactive are the calls of the source. Cut-off read from the data, not from the text of the source: active = GI50 up to about 1.1 µM and inactive = higher. Residues, ends and D or L forms follow the SMILES beside them. *: point of attachment. Cbz = O=C(OCc1ccccc1)*; Boc = CC(C)(C)OC(=O)*; OSu = O=C1CCC(=O)N1O*; Bn = c1ccc(C*)cc1

What was measured:
Test in all cases: NCI anticancer screen, dose series, 48 h
COLO 205 = tested on: COLO 205
HOP-92 = tested on: HOP-92
HT-29 = tested on: HT-29
IGROV-1 = tested on: IGROV-1
K562 = tested on: K562
KM12 = tested on: KM12
MCF7 = tested on: MCF7
MDA-MB-231 = tested on: MDA-MB-231
OVCAR-5 = tested on: OVCAR-5
PC-3 = tested on: PC-3
SK-MEL-28 = tested on: SK-MEL-28
SK-MEL-5 = tested on: SK-MEL-5
SK-OV-3 = tested on: SK-OV-3
SNB-75 = tested on: SNB-75
SW-620 = tested on: SW-620
U-251 = tested on: U-251
UO-31 = tested on: UO-31
MDA-MB-435 = tested on: MDA-MB-435
MDA-N = tested on: MDA-N

## Cc1ccc(S(=O)(=O)NC(=O)NC(Cc2ccccc2)C(=O)O)cc1 (centres undefined)
COLO 205
  GI50: > 100 µM (inactive)
HOP-92
  GI50: > 100 µM (inactive)
HT-29
  GI50: > 100 µM (inactive)
IGROV-1
  GI50: > 100 µM (inactive)
K562
  GI50: > 100 µM (inactive)
KM12
  GI50: > 100 µM (inactive)
MCF7
  GI50: > 100 µM (inactive)
MDA-MB-231
  GI50: > 100 µM (inactive)
OVCAR-5
  GI50: > 100 µM (inactive)
PC-3
  GI50: > 100 µM (inactive)
SK-MEL-28
  GI50: > 100 µM (inactive)
SK-MEL-5
  GI50: > 100 µM (inactive)
SK-OV-3
  GI50: > 100 µM (inactive)
SNB-75
  GI50: > 100 µM (inactive)
SW-620
  GI50: > 100 µM (inactive)
U-251
  GI50: > 100 µM (inactive)
UO-31
  GI50: > 100 µM (inactive)

## O=C(Nc1nc2ccc([N+](=O)[O-])cc2s1)C(=O)C(C1OC(=O)c2ccccc21)[N+](=O)[O-] (centres undefined)
COLO 205
  GI50: > 100 µM (inactive)
HOP-92
  GI50: 20.4 µM (inactive)
HT-29
  GI50: > 100 µM (inactive)
IGROV-1
  GI50: 42.2 µM (inactive)
K562
  GI50: 83.4 µM (inactive)
KM12
  GI50: > 100 µM (inactive)
OVCAR-5
  GI50: > 100 µM (inactive)
SK-MEL-28
  GI50: > 100 µM (inactive)
SK-MEL-5
  GI50: 64.6 µM (inactive)
SK-OV-3
  GI50: 54.3 µM (inactive)
SNB-75
  GI50: 35.6 µM (inactive)
SW-620
  GI50: > 100 µM (inactive)
U-251
  GI50: 82.8 µM (inactive)
UO-31
  GI50: 20.3 µM (inactive)

## COc1cc(C2C(C(=O)Nc3cc(F)c(F)cc3F)=C(C)NC(C)=C2C(=O)Nc2cc(F)c(F)cc2F)ccc1O
COLO 205
  GI50: 30.9 µM (inactive)
HOP-92
  GI50: 0.982 µM (active)
HT-29
  GI50: 29 µM (inactive)
IGROV-1
  GI50: 23.1 µM (inactive)
K562
  GI50: 18.4 µM (inactive)
KM12
  GI50: 13.3 µM (inactive)
OVCAR-5
  GI50: 17.4 µM (inactive)
SK-MEL-28
  GI50: 25.4 µM (inactive)
SK-MEL-5
  GI50: 18.5 µM (inactive)
SNB-75
  GI50: 2.36 µM (inactive)
SW-620
  GI50: 37.7 µM (inactive)
U-251
  GI50: 23.6 µM (inactive)
UO-31
  GI50: 8.04 µM (inactive)

## CC(O)CNC(=O)Nc1c(C(F)(F)F)cc(-c2ccccc2)[nH]c1=O (centres undefined)
COLO 205
  GI50: > 100 µM (inactive)
HOP-92
  GI50: > 100 µM (inactive)
HT-29
  GI50: > 100 µM (inactive)
IGROV-1
  GI50: > 100 µM (inactive)
K562
  GI50: > 100 µM (inactive)
KM12
  GI50: > 100 µM (inactive)
MCF7
  GI50: > 100 µM (inactive)
MDA-MB-231
  GI50: > 100 µM (inactive)
MDA-MB-435
  GI50: > 100 µM (inactive)
OVCAR-5
  GI50: > 100 µM (inactive)
PC-3
  GI50: > 100 µM (inactive)
SK-MEL-28
  GI50: > 100 µM (inactive)
SK-MEL-5
  GI50: > 100 µM (inactive)
SK-OV-3
  GI50: > 100 µM (inactive)
SW-620
  GI50: > 100 µM (inactive)
U-251
  GI50: > 100 µM (inactive)
UO-31
  GI50: > 100 µM (inactive)

## C[N+](C)(C)CC(=O)N/N=C(/CC(=O)CC(C1=C(O)c2ccccc2OC1)c1ccccc1)C(=O)Nc1cccc(Cl)c1 (centres undefined)
COLO 205
  GI50: > 100 µM (inactive)
HOP-92
  GI50: > 100 µM (inactive)
HT-29
  GI50: > 100 µM (inactive)
IGROV-1
  GI50: > 100 µM (inactive)
K562
  GI50: > 100 µM (inactive)
KM12
  GI50: > 100 µM (inactive)
MCF7
  GI50: > 100 µM (inactive)
MDA-MB-231
  GI50: > 100 µM (inactive)
OVCAR-5
  GI50: > 100 µM (inactive)
PC-3
  GI50: > 100 µM (inactive)
SK-MEL-28
  GI50: > 100 µM (inactive)
SK-MEL-5
  GI50: > 100 µM (inactive)
SK-OV-3
  GI50: > 100 µM (inactive)
SNB-75
  GI50: > 100 µM (inactive)
SW-620
  GI50: > 100 µM (inactive)
U-251
  GI50: > 100 µM (inactive)
UO-31
  GI50: > 100 µM (inactive)

## Cc1ccc(Cl)c(NC(=O)C(=O)C(C(=O)c2ccncc2)C2OC(=O)c3ccccc32)c1 (centres undefined)
COLO 205
  GI50: > 100 µM (inactive)
HOP-92
  GI50: > 100 µM (inactive)
HT-29
  GI50: > 100 µM (inactive)
IGROV-1
  GI50: > 100 µM (inactive)
K562
  GI50: > 100 µM (inactive)
SK-MEL-28
  GI50: > 100 µM (inactive)
SK-MEL-5
  GI50: > 100 µM (inactive)
SK-OV-3
  GI50: > 100 µM (inactive)
SNB-75
  GI50: > 100 µM (inactive)
SW-620
  GI50: > 100 µM (inactive)
U-251
  GI50: > 100 µM (inactive)
UO-31
  GI50: > 100 µM (inactive)

## CCOC(=O)CCC(C(=O)OCC)n1nc2ccc(Nc3c(C)[n+]([O-])c4ccc(Cl)cc4[n+]3[O-])cc2n1 (centres undefined)
COLO 205
  GI50: 32.7 µM (inactive)
HOP-92
  GI50: 20.9 µM (inactive)
HT-29
  GI50: 30.9 µM (inactive)
IGROV-1
  GI50: 42.4 µM (inactive)
K562
  GI50: 41.4 µM (inactive)
KM12
  GI50: 56.8 µM (inactive)
MCF7
  GI50: 24.1 µM (inactive)
MDA-MB-435
  GI50: 30.2 µM (inactive)
MDA-N
  GI50: 42.8 µM (inactive)
OVCAR-5
  GI50: 30.9 µM (inactive)
PC-3
  GI50: 26.5 µM (inactive)
SK-MEL-5
  GI50: 21.8 µM (inactive)
SK-OV-3
  GI50: 21.2 µM (inactive)
SW-620
  GI50: 33.7 µM (inactive)
U-251
  GI50: 15 µM (inactive)
UO-31
  GI50: 15.5 µM (inactive)

## NN/C(=N\S(=O)(=O)c1cc(S(=O)(=O)c2ccccc2)cs1)Nc1ccc(Cl)cc1
COLO 205
  GI50: 19.4 µM (inactive)
HOP-92
  GI50: 33.3 µM (inactive)
HT-29
  GI50: 36.1 µM (inactive)
IGROV-1
  GI50: 25.9 µM (inactive)
K562
  GI50: 18.7 µM (inactive)
KM12
  GI50: 26.1 µM (inactive)
MCF7
  GI50: 32.4 µM (inactive)
MDA-MB-231
  GI50: 27.4 µM (inactive)
MDA-N
  GI50: 20.5 µM (inactive)
OVCAR-5
  GI50: 66.2 µM (inactive)
PC-3
  GI50: 23.3 µM (inactive)
SK-MEL-28
  GI50: 35.2 µM (inactive)
SK-MEL-5
  GI50: 16.9 µM (inactive)
SK-OV-3
  GI50: 43.7 µM (inactive)
SNB-75
  GI50: 21.9 µM (inactive)
SW-620
  GI50: 47.5 µM (inactive)
U-251
  GI50: 23.5 µM (inactive)
UO-31
  GI50: 28.8 µM (inactive)

## c1cc(-c2ccc(-c3ccsc3)s2)cs1
COLO 205
  GI50: > 100 µM (inactive)
HOP-92
  GI50: > 100 µM (inactive)
HT-29
  GI50: 39.5 µM (inactive)
IGROV-1
  GI50: 80.2 µM (inactive)
K562
  GI50: > 100 µM (inactive)
KM12
  GI50: > 10 µM (inactive)
MCF7
  GI50: 50.5 µM (inactive)
MDA-MB-435
  GI50: > 100 µM (inactive)
MDA-N
  GI50: > 100 µM (inactive)
OVCAR-5
  GI50: > 100 µM (inactive)
SK-MEL-5
  GI50: > 100 µM (inactive)
SK-OV-3
  GI50: > 100 µM (inactive)
SNB-75
  GI50: 23.9 µM (inactive)
SW-620
  GI50: 44.3 µM (inactive)
U-251
  GI50: 19.5 µM (inactive)
UO-31
  GI50: 28.1 µM (inactive)

## CC1(C)CCc2c(cc3c(c2O)CCC(C)(C)O3)O1
COLO 205
  GI50: > 100 µM (inactive)
HT-29
  GI50: 35.8 µM (inactive)
IGROV-1
  GI50: > 100 µM (inactive)
K562
  GI50: 48.8 µM (inactive)
KM12
  GI50: > 100 µM (inactive)
MCF7
  GI50: > 100 µM (inactive)
MDA-MB-231
  GI50: > 100 µM (inactive)
MDA-N
  GI50: > 100 µM (inactive)
OVCAR-5
  GI50: > 100 µM (inactive)
PC-3
  GI50: 49.3 µM (inactive)
SK-MEL-28
  GI50: > 100 µM (inactive)
SK-MEL-5
  GI50: 62.8 µM (inactive)
SK-OV-3
  GI50: > 100 µM (inactive)
SNB-75
  GI50: 80.5 µM (inactive)
SW-620
  GI50: > 100 µM (inactive)
U-251
  GI50: > 100 µM (inactive)
UO-31
  GI50: > 100 µM (inactive)

## CC(C)[Si](OC1=C(c2ccccc2)C(NC(=O)/C=C/c2ccc([N+](=O)[O-])cc2)CCC1)(C(C)C)C(C)C (centres undefined)
COLO 205
  GI50: > 100 µM (inactive)
HOP-92
  GI50: > 100 µM (inactive)
HT-29
  GI50: > 100 µM (inactive)
IGROV-1
  GI50: > 100 µM (inactive)
K562
  GI50: > 100 µM (inactive)
KM12
  GI50: > 100 µM (inactive)
MCF7
  GI50: > 100 µM (inactive)
MDA-MB-231
  GI50: > 100 µM (inactive)
MDA-MB-435
  GI50: > 100 µM (inactive)
OVCAR-5
  GI50: > 100 µM (inactive)
PC-3
  GI50: > 100 µM (inactive)
SK-MEL-5
  GI50: > 100 µM (inactive)
SK-OV-3
  GI50: > 100 µM (inactive)
SNB-75
  GI50: > 100 µM (inactive)
SW-620
  GI50: > 100 µM (inactive)
U-251
  GI50: > 100 µM (inactive)
UO-31
  GI50: > 100 µM (inactive)

## CC(C)(C)OC(=O)NC(Cc1ccc(OCc2ccccc2)cc1)C(=O)NC(CCCCNC(=O)OCc1ccccc1)C(=O)NC(CCCCNC(=O)OCc1ccccc1)C(=O)ON1C(=O)CCC1=O (centres undefined) (Boc-Tyr(Bn)-Lys(Cbz)-Lys(Cbz)-OSu; configuration not given here)
COLO 205
  GI50: 31.1 µM (inactive)
HOP-92
  GI50: 51.2 µM (inactive)
HT-29
  GI50: 41.1 µM (inactive)
IGROV-1
  GI50: 31.5 µM (inactive)
KM12
  GI50: 46.1 µM (inactive)
MCF7
  GI50: 18.9 µM (inactive)
MDA-MB-435
  GI50: 33.1 µM (inactive)
MDA-N
  GI50: 16.6 µM (inactive)
OVCAR-5
  GI50: 36.7 µM (inactive)
SK-MEL-28
  GI50: 30.6 µM (inactive)
SK-MEL-5
  GI50: 26 µM (inactive)
SK-OV-3
  GI50: > 100 µM (inactive)
SNB-75
  GI50: 51.6 µM (inactive)
U-251
  GI50: 16.3 µM (inactive)
UO-31
  GI50: > 100 µM (inactive)
